Like-named read-outs stand apart in the source and are kept apart here.
How the values were obtained:
[1] = target: T1, Mnk1 (Homo sapiens, UniProt Q9BUB5); assay: Protein level decrease by western blot, dose-response in CWR22Rv1 cells; format: cell-based; settings: for times more effective (than Gal) in degrading Mnk1: from EC50 values
T1 construct: compound treatments (0–7.5 µM) of CWR22Rv1 cells for 72 h followed by western blot analysis of cells lysates; endogenous in cells; host or cells: CWR22Rv1
From the text: Figure 4 Impact of Gal and NGGAs on AR/AR-V7 and Mnk1/2-eIF4E signaling pathways. (A) Western blot showing the effects of Gal and VNPT55 (55) on Mnk1, Mnk2, and peIF4E. (B) Western blot showing the effects of VNPP414 (414) and VNPP433-3β (433)) on Mnk1, Mnk2, and peIF4E. (C) Western blot showing dose-dependent effect of VNPP433-3β (433) on Mnk2, BMI-1, and peIF4E in CWR-R1 cells. (D) Western blot showing dose-dependent effect of Gal on Mnk1, Mnk2, BMI-1, and Snail1 in drug-resistant CWR-R1(10E) cells. (E) Western blot showing dose-dependent effect of VNPP433-3β (433) on Mnk1, Mnk2, BMI-1, and Snail1 in drug-resistant CWR-R1(10E) cells. (F) EC50 values (for fAR, ARV-7 and Mnk1) for compounds determined from dose–response curves upon compound treatments (0–7.5 µM) of CWR22Rv1 cells for 72 h followed by western blot analysis of cells lysates. Note: the numbers in parentheses in Figure 4B are concentrations of the agents in µM.
We further determined the effects of lead NGGAs on f-AR, AR-V7 and Mnk1 protein levels in CWR22Rv1 cells. Following agent treatments (0–7.5 µM), the EC50 values were determined from dose–response curves. […] Of note is the finding that although there was no dramatic difference between the agents in terms of their effects on f-AR suppression, there were significant differences in their relative potencies against AR-V7 and Mnk1.
Cells were lysed with radioimmunoprecipitation assay (RIPA) buffer (Sigma, St. Louis, MO, USA), supplemented with 1X protease inhibitors (Roche, Indianapolis, IN, USA), phosphatase inhibitors (Thermo Scientific, Waltham, MA, USA), 1 mmol/L EDTA and 1 mmol/L PMSF (Sigma). Western blot analyses were performed as in Kwegyir-Afful et al., 2015 [2].

[2] = Plasma pharmacokinetics after single IV, IP or PO dose; format: in vivo, male CD-1 mice; settings: for bioavailability: read-out: F (%) absolute bioavailability
Experimental: These studies were conducted in male CD-1 mice (7–8 weeks old, weighing about 27–33 g) were obtained from Hylasco Bio-Technology Pvt. Ltd. (A Charles River Technology Licensee, Turkapally, India). The details are presented in the Supplementary Materials.
A generic gradient LC method with a short run times of 3.5 min for Gal and 4.5 min for VNPP414 and VNPP433-3β were developed for the analysis of Gal/analogs in plasma samples. The mobile phase flow rate was 1.0 mL/min with a split ratio of 1:1 to the ionization source. The mobile phase for Gal consisted of 10 mM ammonium acetate in water as aqueous component and 100% methanol as organic modifier. For the Gal analogs, the mobile phase consisted of 0.01% formic acid in water and 100% acetonitrile. The column and autosampler were maintained at 40°C and 15°C, respectively for all assays. The turbo ion spray source was operated with typical settings as follows: ionization mode, positive; curtain gas, 30 psi; nebulizer gas (GS1), 55 psi; heater gas (GS2), 50 (for Gal analyte) and 60 (for Gal analogs analytes) psi; nebulizer gas 55 psi; temperature, 550 °C. A summary of the ion transitions, collision energies and retention times for both the analytes (Gal, VNPP414 and VNPP433- […]
components were automatically integrated using Analyst software version 1.5.
Table S1. Optimized mass spectroscopic conditions. *IS: internal standard; **Gal had two daughter ions (m/z: 119.20 and 195.20) that were used for multiple reaction monitoring (MRM) in LC-MS/MS runs. Because we observed a poor shape peak of Gal with fragment of m/z 195.20 at lower levels (LLOQ: 1 ng/mL) in plasma samples, we used fragment m/z 119.20 for the PK study. We used fragment of m/z 195.20 when Gal was used as IS where the concentration was ~200 ng/mL. This fragment was stable throughout the study.
Analytes Parent ions Daughter ions Collision energy Declustering potentials […]
1.5. Pharmacokinetics of Gal, VNPP414 and VNPP433-3β in CD-1 Mice
Male CD-1 mice (7-8 weeks old, weighing about 27-33 g) were obtained from Hylasco Bio-Technology Pvt. Ltd (A Charles River Technology Licensee in India) were maintained in a controlled environment of about 25 °C, 50% relative humidity and a 12-h light/12-h dark cycle. The compounds were formulated in either 10% DMSO in 10% solutol in phosphate-buffered saline (PBS) for single intravenous doses (1 mg/kg) or in 40% β-cyclodextrin in saline for single intraperitoneal or oral doses (10 mg/kg). 10 ml/kg dose volume used for administrating the formulation for all the three routes (IV, IP and PO). The IV administration was performed through tail vein of mice as bolus. For IP route, the compound was dosed in intraperitoneal cavity using a 27-gauze needle. PO administration was performed through gastric gavage tube (aka feeding tube). Serial blood samples were collected from 3 mice per time-point (staggered bleeding approach was used for mice where one mice was bled maximum for three time within 24h) into vacutainers containing lithium heparin (anticoagulant) at and 24 h post dose after intraperitoneal or oral administration. In total, 81 mice were used for this study. At each time point 200 μL of blood was collected into vacutainers. Venous blood Samples were collected using retro orbital puncture method. Plasma was isolated by centrifugation at 10000 rpm for 10 min and stored frozen at -80°C until assay. Plasma pharmacokinetic parameters were calculated using the non-compartmental analysis tool of Phoenix software (Version 7, Pharsight) and were determined from individual animals in each group. The area under the plasma concentration-time curve (AUC0-t and AUCinf), elimination half-life (T1/2), clearance (CL), volume of distribution (Vd) and mean residence time (MRT) were calculated from intravenous group. The peak plasma concentration (Cmax), time to achieve peak plasma concentration (Tmax), AUC0-t and AUCinf, were […]
calculated for the IP and PO groups. Absolute oral bioavailability (%F) were calculated from the PO […]

[3] = 0–7.5 µM, 72 h, western blot, read-out: Mnk1 EC50
[4] = mouse, plasma, IP 10 mg/kg, male CD-1 mice
[5] = mouse, plasma, IV 1 mg/kg, male CD-1 mice
[6] = mouse, plasma, PO 10 mg/kg, male CD-1 mice
[7] = mouse, IP 10 mg/kg, male CD-1 mice, plasma
[8] = mouse, IV 1 mg/kg, male CD-1 mice, plasma
[9] = mouse, PO 10 mg/kg, male CD-1 mice, plasma
[10] = PO 10 mg/kg, male CD-1 mice, 10 mg/kg
[11] = male, CD-1, mouse, in vivo, ip, 10 mg/kg, IP 10 mg/kg, male CD-1 mice
[12] = male, CD-1, mouse, in vivo, po, 10 mg/kg, PO 10 mg/kg, male CD-1 mice
[13] = mouse, in vivo, IP 10 mg/kg, male CD-1 mice, plasma
[14] = mouse, in vivo, PO 10 mg/kg, male CD-1 mice, plasma

T1 sequence (Q9BUB5 whole entry): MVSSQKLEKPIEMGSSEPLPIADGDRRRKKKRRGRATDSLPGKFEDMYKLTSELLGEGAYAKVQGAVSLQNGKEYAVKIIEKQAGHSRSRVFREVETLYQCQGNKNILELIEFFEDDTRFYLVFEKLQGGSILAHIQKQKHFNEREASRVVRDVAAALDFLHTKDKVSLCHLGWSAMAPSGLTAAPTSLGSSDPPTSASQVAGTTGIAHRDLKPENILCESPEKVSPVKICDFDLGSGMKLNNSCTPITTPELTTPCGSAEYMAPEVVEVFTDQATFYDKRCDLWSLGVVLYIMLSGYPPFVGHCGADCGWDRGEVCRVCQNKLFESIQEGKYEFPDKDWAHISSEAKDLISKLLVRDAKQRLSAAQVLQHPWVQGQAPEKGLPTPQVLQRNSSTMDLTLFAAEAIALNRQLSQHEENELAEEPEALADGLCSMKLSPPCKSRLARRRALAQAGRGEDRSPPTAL

Structure (SMILES)	DC50 [1, 3] [µM]	half-life [2, 4] [h]	bioavailability [2, 4] [%]	half-life [2, 5] [h]	half-life [2, 6] [h]	bioavailability [2, 6] [%]	AUC(0-inf) [2, 7] [µg·h/mL]	Cmax [2, 7] [µg/mL]	AUC(0-inf) [2, 8] [µg·h/mL]	AUC(0-inf) [2, 9] [µg·h/mL]	Cmax [2, 9] [µg/mL]	times more effective (than Gal) in degrading Mnk1 [1] [times]	also measured
C[C@]12CC[C@H](O)CC1=CC[C@@H]1[C@@H]2CC[C@]2(C)C(n3cnc4ccccc43)=CC[C@@H]12 [Galeterone]	5.29 ± 0.09	1.24	169	0.17	1.26	18.4	0.111	0.507	0.0579	0.969	0.0328	–	half-life ([2]; male, CD-1, mouse, plasma, range over IV, IP and PO routes, mice): 0.17 to 1.26 h
C[C@]12CC[C@H](OCc3ccncc3)CC1=CCC1C2CC[C@]2(C)C(n3cnc4ccccc43)=CCC12 (stereo partly shown) [VNPP414]	0.56 ± 0.07	6.25	157	7.48	4.3	19.4	8.6	2.17	0.547	1.03	0.175	9.4	–
C[C@]12CC[C@H](n3ccnc3)CC1=CCC1C2CC[C@]2(C)C(n3cnc4ccccc43)=CCC12 (stereo partly drawn) [VNPP433-3β]	–	–	–	–	–	–	–	–	–	–	–	66.0	DC50 ([1]; read-out: Mnk1 EC50, 0–7.5 µM, 72 h, western blot): 0.08 µM; F (%) absolute bioavailability [2, 10]: 49.45%; T1/2 [2, 10]: 31.19 h; half-life [2, 11]: 22.4 h; bioavailability [2, 11]: 123%; half-life ([2]; male, CD-1, mouse, in vivo, iv, 1 mg/kg, IV 1 mg/kg, male CD-1 mice): 14.3 h; half-life [2, 12]: 31.2 h; bioavailability [2, 12]: ~50%; AUC ([2]; male, CD-1, mouse, in vivo, 10 mg/kg oral dosing, mice): 71.9 µM·h; Cmax ([2]; male, CD-1, mouse, in vivo, PO 10 mg/kg, plasma, converted from ng/mL): ~2 µM; AUC(0-inf) [2, 13]: 57.3 µg·h/mL; Cmax [2, 13]: 2.29 µg/mL; AUC(0-inf) ([2]; mouse, in vivo, IV 1 mg/kg, male CD-1 mice, plasma): 3.47 µg·h/mL; AUC(0-inf) [2, 14]: 31.8 µg·h/mL; Cmax [2, 14]: 0.706 µg/mL

Reference: paper PMC6895912 (Cancers, 2019)
